According to ChEMBL document CHEMBL1137749, “Antifungal unsaturated cyclic Mannich ketones and amino alcohols: study of mechanism of action” (2009):
≈ marks a conversion by molar mass, not a printed value. Calls of active or inactive are those of the source. The calls are words filed in the database; no cut-off is given here.

Columns and labels:
Candida parapsilosis = assay: Antifungal activity against Candida parapsilosis ATCC 22019 after 48 hrs by macro tube dilution method; format: functional; settings: Lodderomyces parapsilosis, ATCC 22019, 48 h
Candida albicans [1] = assay: Antifungal activity against Candida albicans ATCC 90028 after 48 hrs by macro tube dilution method; format: functional; settings: ATCC 90028, 48 h
Nakaseomyces glabratus = assay: Antifungal activity against Candida glabrata ATCC 3916 after 48 hrs by macro tube dilution method; format: functional; settings: ATCC 3916, 48 h
Candida albicans [2] = assay: Antifungal activity against Candida albicans ATCC 90028 assessed as inhibition of fungal ergosterol synthesis at 1.56 ug/mL after 16 hrs by UV spectrophotometry; format: functional, organism-based
Saccharomyces cerevisiae = assay: Antifungal activity against Saccharomyces cerevisiae after 48 hrs by macro tube dilution method; format: functional
Candida albicans [3] = assay: Inhibition of chitin synthase in Candida albicans ATCC 90028 at 1.5 times MIC by liquid scintillation analyzer relative to nikkomycin
Aspergillus sp. = assay: Antifungal activity against Aspergillus sp. after 48 hrs by macro tube dilution method; format: functional
Pichia kudriavzevii = assay: Antifungal activity against Candida krusei ATCC 30068 after 48 hrs by macro tube dilution method; format: functional; settings: ATCC 30068, 48 h
Rattus norvegicus = organism: Rattus norvegicus; assay: Inhibition of lactate dehydrogenase in Wistar rat kidney at 1.5 times MIC relative to control
Candida albicans [4] = assay: Antifungal activity against Candida albicans ATCC 90028 assessed as inhibition of fungal ergosterol synthesis at 0.5 times MIC after 16 hrs by UV spectrophotometry; format: functional, organism-based
Candida albicans [5] = assay: Antifungal activity against Candida albicans ATCC 90028 assessed as number of fungal cells without pseudohyphae out of 100 cells at 0.5 time MIC after 0 to 6 hrs by light microscopy; format: functional
Candida albicans [6] = assay: Antifungal activity against Candida albicans ATCC 90028 assessed as number of fungal cells with pseudohyphae out of 100 cells at 0.5 time MIC after 0 to 6 hrs by light microscopy; format: functional
Candida albicans [7] = assay: Antifungal activity against Candida albicans ATCC 90028 assessed as inhibition of fungal ergosterol synthesis at 25 ug/mL after 16 hrs by UV spectrophotometry; format: functional, organism-based
Candida albicans [8] = assay: Antifungal activity against Candida albicans ATCC 90028 assessed as changes in fungal protein expression at 0.5 time MIC after 1 hr by electrophoresis-based microchip technology; format: functional, organism-based
Candida albicans [9] = assay: Antifungal activity against Candida albicans ATCC 90028 assessed as changes in fungal protein expression at 2 times MIC after 1 hr by electrophoresis-based microchip technology; format: functional, organism-based

## COc1cccc(/C=C2\CCC(CN3CCOCC3)C2=O)c1 (configuration not stated)
Candida parapsilosis
  MIC: 3.12 µg/mL (≈ 10.4 µM)
Candida albicans [1]
  MIC: 3.12 µg/mL (≈ 10.4 µM)
Nakaseomyces glabratus
  MIC: 3.12 µg/mL (≈ 10.4 µM)
Candida albicans [2]
  Activity: inactive
Saccharomyces cerevisiae
  MIC: 1.56 µg/mL (≈ 5.18 µM)
Candida albicans [3]
  inhibition: inactive
Aspergillus sp.
  MIC: 50 µg/mL (≈ 166 µM)
Pichia kudriavzevii
  MIC: 3.12 µg/mL (≈ 10.4 µM)
Rattus norvegicus
  Activity: inactive

## COc1ccccc1/C=C1\CCC(CN2CCOCC2)C1=O (configuration not stated)
Candida parapsilosis
  MIC: 12.5 µg/mL (≈ 41.5 µM)
Candida albicans [1]
  MIC: 3.12 µg/mL (≈ 10.4 µM)
Nakaseomyces glabratus
  MIC: 12.5 µg/mL (≈ 41.5 µM)
Candida albicans [4]
  Activity: inactive
Candida albicans [5]
  Activity: 81
Candida albicans [6]
  Activity: 9
Saccharomyces cerevisiae
  MIC: 6.25 µg/mL (≈ 20.7 µM)
Aspergillus sp.
  MIC: > 200 µg/mL
Pichia kudriavzevii
  MIC: 3.12 µg/mL (≈ 10.4 µM)

## OC(Cn1cncn1)(Cn1cncn1)c1ccc(F)cc1F
Candida albicans [2]
  Activity: inactive

## O=C1/C(=C/c2ccccc2)CCCCC1CN1CCCCC1 (configuration not stated)
Candida albicans [7]
  Activity: inactive
Candida parapsilosis
  MIC: 200 µg/mL (≈ 672 µM)
Candida albicans [1]
  MIC: 50 µg/mL (≈ 168 µM)
Nakaseomyces glabratus
  MIC: 100 µg/mL (≈ 336 µM)
Candida albicans [8]
  Activity: inactive
Candida albicans [5]
  Activity: 39
Candida albicans [9]
  Activity: inactive
Candida albicans [6]
  Activity: 47
Saccharomyces cerevisiae
  MIC: 100 µg/mL (≈ 336 µM)
Candida albicans [3]
  inhibition: 24%
Aspergillus sp.
  MIC: 100 µg/mL (≈ 336 µM)
Pichia kudriavzevii
  MIC: 100 µg/mL (≈ 336 µM)
Rattus norvegicus
  inhibition: inactive
